Experimental data taken from patent US20250230193A1, “CYCLIC COMPOUND HAVING SELECTIVE KRAS INHIBITORY EFFECT ON HRAS AND NRAS” (CHUGAI SEIYAKU KABUSHIKI KAISHA, priority 2022, published 2025).

Key:
[1] = system: human lung cancer strain NCI-H441; experiment: cells; settings: NCI-H441, 96 h, read-out: NCI-H441 IC50 (nM)
[2] = target: GDP-bound HRAS wild-type protein (Homo sapiens, UniProt P01112); experiment: Binding to HRAS by surface plasmon resonance (SPR), Single Cycle Kinetics; settings: SPR; KD ratio class
[3] = target: GDP-bound NRAS wild-type protein (Homo sapiens, UniProt P01111); experiment: Binding to NRAS by surface plasmon resonance (SPR), Single Cycle Kinetics; settings: SPR; KD ratio class
GDP-bound NRAS wild-type protein, sequence (P01111 whole entry): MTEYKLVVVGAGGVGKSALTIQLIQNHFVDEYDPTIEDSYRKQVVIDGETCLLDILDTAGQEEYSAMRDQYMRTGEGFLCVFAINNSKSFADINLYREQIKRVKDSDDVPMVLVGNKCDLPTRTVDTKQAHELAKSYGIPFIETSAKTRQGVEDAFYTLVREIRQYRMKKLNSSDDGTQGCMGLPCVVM

GDP-bound HRAS wild-type protein, sequence (P01112 whole entry): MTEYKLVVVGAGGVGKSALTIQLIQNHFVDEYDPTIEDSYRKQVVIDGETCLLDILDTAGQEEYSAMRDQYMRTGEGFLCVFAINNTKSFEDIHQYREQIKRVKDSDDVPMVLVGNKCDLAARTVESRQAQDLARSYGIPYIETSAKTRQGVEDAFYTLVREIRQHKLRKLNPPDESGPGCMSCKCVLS

Structure (SMILES) | IC50 [1] | HRAS/KRAS (ratio of KD value for GDP-bound HRAS wild-type protein to KD value for KRAS) [2] | NRAS/KRAS (ratio of KD value for GDP-bound NRAS wild-type protein to KD value for KRAS) [3]
CCC[C@H]1C(=O)N[C@@H]([C@@H](C)CC)C(=O)N(C)CC(=O)N(C)[C@H]2C/C=C\CCN(C2=O)[C@@H](Cc2ccc(C(F)(F)F)cc2)C(=O)N(C)CC(=O)N[C@@H](CCc2cc(F)c(C(F)(F)F)c(F)c2)C(=O)N2C[C@H](OCC)C[C@H]2C(=O)NC2(CCC2)C(=O)N(C)[C@@H](C2CCCC2)C(=O)N(C)[C@H](C(=O)N2CCCCC2)CC(=O)N1C [PP1294] | 10 nM | A (a compound having 10 or more and less than 20 is denoted as A) | A (a compound having 10 or more and less than 20 is denoted as A)
CC[C@H](C)[C@@H]1NC(=O)[C@H](CC)N(C)C(=O)C[C@@H](C(=O)N2CCOCC2)N(C)C(=O)[C@H](C2CCCC2)N(C)C(=O)C2(CCCC2)NC(=O)[C@@H]2CCCN2C(=O)[C@H](CCc2ccc(C(F)(F)F)c(Cl)c2)NC(=O)CN(C)C(=O)[C@H](Cc2ccc(C(F)(F)F)cc2)N2C[C@H](C)CC[C@@H](C2=O)N(C)C(=O)CN(C)C1=O [PP1337] | 29.8 nM | B (a compound having 3 or more and less than 10 is denoted as B) | B (a compound having 3 or more and less than 10 is denoted as B)
CC[C@H](C)[C@@H]1NC(=O)[C@H](CC2CC2)N(C)C(=O)C[C@@H](C(=O)N2CCOCC2)N(C)C(=O)[C@H](C2CCCC2)N(C)C(=O)C2(CCC2)NC(=O)[C@@H]2CCCN2C(=O)[C@H](CCc2ccc(C(F)(F)F)c(Cl)c2)NC(=O)CN(C)C(=O)[C@H](Cc2ccc(C(F)(F)F)cc2)N2C[C@H](C)CC[C@@H](C2=O)N(C)C(=O)[C@@H]2CCN2C1=O [PP1341] | 46.3 nM | B (a compound having 3 or more and less than 10 is denoted as B) | A (a compound having 10 or more and less than 20 is denoted as A)
CC[C@H](C)[C@@H]1NC(=O)[C@H](CC2CC2)N(C)C(=O)C[C@@H](C(=O)N2CCOCC2)N(C)C(=O)[C@H](C2CCCC2)N(C)C(=O)C2(CCC2)NC(=O)[C@@H]2CCCN2C(=O)[C@H](CCc2ccc(C(F)(F)F)c(Cl)c2)NC(=O)CN(C)C(=O)[C@H](Cc2ccc(C(F)(F)F)cc2)N2C[C@H](C)CC[C@@H](C2=O)N(C)C(=O)CN(C)C1=O [PP1344] | 16.7 nM | B (a compound having 3 or more and less than 10 is denoted as B) | B (a compound having 3 or more and less than 10 is denoted as B)
CC[C@H](C)[C@@H]1NC(=O)[C@H](CC2CCC2)N(C)C(=O)C[C@@H](C(=O)N2CCOCC2)N(C)C(=O)[C@H](C2CCCC2)N(C)C(=O)C2(CCC2)NC(=O)[C@@H]2CCCN2C(=O)[C@H](CCc2ccc(C(F)(F)F)c(Cl)c2)NC(=O)CN(C)C(=O)[C@H](Cc2ccc(C(F)(F)F)cc2)N2C[C@H](C)CC[C@@H](C2=O)N(C)C(=O)[C@@H]2CCN2C1=O [PP1345] | 34.8 nM | B (a compound having 3 or more and less than 10 is denoted as B) | A (a compound having 10 or more and less than 20 is denoted as A)
CC[C@H](C)[C@@H]1NC(=O)[C@H](CC2CC2)N(C)C(=O)C[C@@H](C(=O)N(C)C)N(C)C(=O)[C@H](C2CCCC2)N(C)C(=O)C2(CCCC2)NC(=O)[C@@H]2CCCN2C(=O)[C@H](CCc2ccc(C(F)(F)F)c(Cl)c2)NC(=O)CN(C)C(=O)[C@H](Cc2ccc(C(F)(F)F)cc2)N2C[C@H](C)CC[C@@H](C2=O)N(C)C(=O)CN(C)C1=O [PP1346] | 7.2 nM | B (a compound having 3 or more and less than 10 is denoted as B) | B (a compound having 3 or more and less than 10 is denoted as B)
CCO[C@@H]1C[C@H]2C(=O)NC3(CCCC3)C(=O)N(C)[C@@H](C3CCCC3)C(=O)N(C)[C@H](C(=O)N3CCOCC3)CC(=O)N(C)[C@@H](CC)C(=O)N[C@@H]([C@@H](C)CC)C(=O)N(C)CC(=O)N(C)[C@H]3C[C@H](C)C(C)CN(C3=O)[C@@H](Cc3ccc(C(F)(F)F)cc3)C(=O)N(C)CC(=O)N[C@@H](CCc3cc(F)c(C(F)(F)F)c(F)c3)C(=O)N2C1 (stereo partly drawn) [PP1348] | 8.7 nM | B (a compound having 3 or more and less than 10 is denoted as B) | B (a compound having 3 or more and less than 10 is denoted as B)
CC[C@H](C)[C@@H]1NC(=O)[C@H](CC)N(C)C(=O)C[C@@H](C(=O)N(C)C)N(C)C(=O)[C@H](C2CCCC2)N(C)C(=O)C2(CCCC2)NC(=O)[C@@H]2CCCN2C(=O)[C@H](CCc2cc(F)c(C(F)(F)F)c(F)c2)NC(=O)CN(C)C(=O)[C@H](Cc2ccc(C(F)(F)F)cc2)N2CC(C)[C@@H](C)C[C@@H](C2=O)N(C)C(=O)CN(C)C1=O (stereo partly drawn) [PP1349] | 14.7 nM | B (a compound having 3 or more and less than 10 is denoted as B) | C (A compound having a KD ratio of 0.1 or more and less than 3 is denoted as C)

Continued by falling IC50 [1], values first:

IC50 [1] | Structure (SMILES) | HRAS/KRAS (ratio of KD value for GDP-bound HRAS wild-type protein to KD value for KRAS) [2] | NRAS/KRAS (ratio of KD value for GDP-bound NRAS wild-type protein to KD value for KRAS) [3]
35 nM | CC[C@H](C)[C@@H]1NC(=O)[C@H](CC)N(C)C(=O)C[C@@H](C(=O)N2CCOCC2)N(C)C(=O)[C@H](C2CCCC2)N(C)C(=O)C2(CCC2)NC(=O)[C@@H]2CCCN2C(=O)[C@H](CCc2ccc(C(F)(F)F)c(Cl)c2)NC(=O)CN(C)C(=O)[C@H](Cc2ccc(C(F)(F)F)cc2)N2C[C@H](C)CC[C@@H](C2=O)N(C)C(=O)CN(C)C1=O [PP1338] | B (a compound having 3 or more and less than 10 is denoted as B) | B (a compound having 3 or more and less than 10 is denoted as B)
20.1 nM | CC[C@H](C)[C@@H]1NC(=O)[C@H](CC)N(C)C(=O)C[C@@H](C(=O)N2CCOCC2)N(C)C(=O)[C@H](C2CCCC2)N(C)C(=O)C2(CCCC2)NC(=O)[C@@H]2CCCN2C(=O)[C@H](CCc2cc(F)c(C(F)(F)F)c(F)c2)NC(=O)CN(C)C(=O)[C@H](Cc2ccc(C(F)(F)F)cc2)N2CC(C)[C@@H](C)C[C@@H](C2=O)N(C)C(=O)CN(C)C1=O (stereo partly drawn) [PP1350] | B (a compound having 3 or more and less than 10 is denoted as B) | B (a compound having 3 or more and less than 10 is denoted as B)
19.3 nM | CC[C@H](C)[C@@H]1NC(=O)[C@H](CC2CC2)N(C)C(=O)C[C@@H](C(=O)N2CCOCC2)N(C)C(=O)[C@H](C2CCCC2)N(C)C(=O)C2(CCCC2)NC(=O)[C@@H]2CCCN2C(=O)[C@H](CCc2ccc(C(F)(F)F)c(Cl)c2)NC(=O)CN(C)C(=O)[C@H](Cc2ccc(C(F)(F)F)cc2)N2C[C@H](C)CC[C@@H](C2=O)N(C)C(=O)CN(C)C1=O [PP1343] | B (a compound having 3 or more and less than 10 is denoted as B) | A (a compound having 10 or more and less than 20 is denoted as A)
10.9 nM | C#CC[C@H]1C(=O)N[C@@H]([C@@H](C)CC)C(=O)N(C)CC(=O)N(C)[C@H]2CC[C@@H](C)CN(C2=O)[C@@H](Cc2ccc(C(F)(F)F)cc2)C(=O)N(C)CC(=O)N[C@@H](CCc2ccc(C(F)(F)F)c(Cl)c2)C(=O)N2CCC[C@H]2C(=O)NC2(CCCC2)C(=O)N(C)[C@@H](C2CCCC2)C(=O)N(C)[C@H](C(=O)N(C)C)CC(=O)N1C [PP1340] | B (a compound having 3 or more and less than 10 is denoted as B) | B (a compound having 3 or more and less than 10 is denoted as B)
10.8 nM | CC[C@H](C)[C@@H]1NC(=O)[C@H](CC)N(C)C(=O)C[C@@H](C(=O)N(C)C)N(C)C(=O)[C@H](C2CCCC2)N(C)C(=O)C2(CCCC2)NC(=O)[C@@H]2CCCN2C(=O)[C@H](CCc2ccc(C(F)(F)F)c(Cl)c2)NC(=O)CN(C)C(=O)[C@H](Cc2ccc(C(F)(F)F)cc2)N2C[C@H](C)CC[C@@H](C2=O)N(C)C(=O)CN(C)C1=O [PP1336] | B (a compound having 3 or more and less than 10 is denoted as B) | B (a compound having 3 or more and less than 10 is denoted as B)
5 nM | CC[C@H](C)[C@@H]1NC(=O)[C@H](CC2CCC2)N(C)C(=O)C[C@@H](C(=O)N(C)C)N(C)C(=O)[C@H](C2CCCC2)N(C)C(=O)C2(CCCC2)NC(=O)[C@@H]2CCCN2C(=O)[C@H](CCc2ccc(C(F)(F)F)c(Cl)c2)NC(=O)CN(C)C(=O)[C@H](Cc2ccc(C(F)(F)F)cc2)N2C[C@H](C)CC[C@@H](C2=O)N(C)C(=O)CN(C)C1=O [PP1342] | B (a compound having 3 or more and less than 10 is denoted as B) | B (a compound having 3 or more and less than 10 is denoted as B)
3.6 nM | CCO[C@@H]1C[C@H]2C(=O)NC3(CCCC3)C(=O)N(C)[C@@H](C3CCCC3)C(=O)N(C)[C@H](C(=O)N(C)C)CC(=O)N(C)[C@@H](CC)C(=O)N[C@@H]([C@@H](C)CC)C(=O)N(C)CC(=O)N(C)[C@H]3C[C@H](C)C(C)CN(C3=O)[C@@H](Cc3ccc(C(F)(F)F)cc3)C(=O)N(C)CC(=O)N[C@@H](CCc3cc(F)c(C(F)(F)F)c(F)c3)C(=O)N2C1 (stereo partly drawn) [PP1347] | B (a compound having 3 or more and less than 10 is denoted as B) | B (a compound having 3 or more and less than 10 is denoted as B)
